In US8518912B2, “Phosphonic acid derivates and their use as P2Y12 receptor antagonists” (Actelion Pharmaceuticals Ltd., priority 2008, dated 2013):

Columns and labels:
[1] = system: ADP induced platelet aggregation; assay: Light transmission platelet aggregation assay; type: cell-based; conditions: human platelet-rich plasma; ADP at 1-5 μM final concentration; 2 minutes preincubation at 37° C.
Method: After obtaining informed consent, blood was obtained by vein puncture from healthy volunteers using a thrombin inhibitor as the anticoagulant. Platelet-rich plasma (PRP) was removed after centrifugation at 20° C. for 10 minutes at 200 g and allowed to equilibrate at 37° C. Part of the blood was centrifuged for 10 minutes at 5000 g to yield platelet poor plasma (PPP).
Light transmission platelet aggregation was carried out according to the method of Born & Cross (G. V. R. Born and M. J. Cross, J. Physiol. (1963), 168, 178-195) using a Chronolog lumiaggregometer with stirring (1000 rpm) at 37° C. PRP was placed into the cuvette and allowed to equilibrate at 37° C. for two minutes. In a first phase, the ADP concentration to give optimal extent of aggregation was determined for the PRP of each donor. In a second phase, PRP was incubated with inhibitors for 2 minutes at 37° C. prior to the addition of the agonist ADP at 1-5 μM final concentration. The change in light transmission, indicative of ongoing aggregation, was monitored during 5 minutes. The extent of platelet aggregation was calculated relative to light absorbance of PRP (not aggregated) and PPP (full aggregation).

human P2Y12 receptor = target: T1, human P2Y12 receptor (Homo sapiens, UniProt Q9H244); assay: P2Y12 receptor binding assay; conditions: CHO cells with recombinant human P2Y12 receptor; tritium-labeled 2-methyl-S-ADP; 2 hours at RT
T1 construct: expressed in transfected cells; host or cells: Chinese Hamster Ovary (CHO) cells
Method: Chinese Hamster Ovary (CHO) cells with recombinant expression of the human P2Y12 receptor were cultured in 24 well cell-culture plates. Cells were washed three times with binding buffer (50 mM Tris pH 7.4, 100 mM NaCl, […], 0.5% BSA). The cells were then incubated with 0.5 ml per well binding buffer containing tritium-labeled 2-methyl-thio-adenosine 5′-diphosphate (2-methyl-S-ADP) (between 100,000 and 300,000 dpm per well) and various concentrations of test compounds. After incubation at RT for 2 hours, cells were washed three times with binding buffer. Then, cells were solubilized by addition of 0.5 ml solubilization buffer (SDS, NaOH, EDTA). The content of each well was then transferred into beta-counter vials and 2.0 ml of Ultima Gold Scintillation liquid was added.

T1 sequence (Q9H244 whole entry): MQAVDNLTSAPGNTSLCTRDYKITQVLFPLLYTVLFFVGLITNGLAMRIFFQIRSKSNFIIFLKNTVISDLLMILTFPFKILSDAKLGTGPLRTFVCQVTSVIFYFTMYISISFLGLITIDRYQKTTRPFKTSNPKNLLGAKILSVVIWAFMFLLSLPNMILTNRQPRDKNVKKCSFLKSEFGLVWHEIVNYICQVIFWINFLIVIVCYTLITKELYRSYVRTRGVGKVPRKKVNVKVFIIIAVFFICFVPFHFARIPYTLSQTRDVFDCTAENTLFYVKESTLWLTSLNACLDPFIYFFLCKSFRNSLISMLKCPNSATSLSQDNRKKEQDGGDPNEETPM

Row | IC50 [1] | IC50 (human P2Y12 receptor) | Structure (SMILES)
1 | 10 nM |  | CCOC(=O)N1CCN(C(=O)[C@H](CP(=O)(O)O)NC(=O)c2cc(N3CC[C@H](OC)C3)nc(-c3ccccc3)n2)CC1 [Example 1, 4-((R)-2-{[6-((S)-3-methoxy-pyrrolidin-1-yl)-2-phenyl-pyrimidine-4-carbonyl]-amino}-3-phosphono-propionyl)-piperazine-1-carboxylic acid ethyl ester]
2 | 8 nM |  | CCCCOC(=O)N1CCN(C(=O)[C@H](CP(=O)(O)O)NC(=O)c2cc(N3CC[C@H](OC)C3)nc(-c3ccccc3)n2)CC1 [Example 2, 4-((R)-2-{[6-((S)-3-methoxy-pyrrolidin-1-yl)-2-phenyl-pyrimidine-4-carbonyl]-amino}-3-phosphono-propionyl)-piperazine-1-carboxylic acid butyl ester]
3 | 21 nM |  | CCOC(=O)N1CCN(C(=O)[C@H](CCP(=O)(O)O)NC(=O)c2cc(N3CC[C@H](OC)C3)nc(-c3ccccc3)n2)CC1 [Example 4, 4-((S)-2-{[6-((S)-3-methoxy-pyrrolidin-1-yl)-2-phenyl-pyrimidine-4-carbonyl]-amino}-4-phosphono-butyryl)-piperazine-1-carboxylic acid ethyl ester]
4 | 1 nM |  | CCCCOC(=O)N1CCN(C(=O)[C@H](CCP(=O)(O)O)NC(=O)c2cc(N3CC[C@H](OC)C3)nc(-c3ccccc3)n2)CC1 [Example 5, 4-((S)-2-{[6-((S)-3-methoxy-pyrrolidin-1-yl)-2-phenyl-pyrimidine-4-carbonyl]-amino}-4-phosphono-butyryl)-piperazine-1-carboxylic acid butyl ester]
5 | 4 nM |  | CCOC(=O)N1CCN(C(=O)[C@H](Cc2ccc(P(=O)(O)O)cc2)NC(=O)c2cc(N3CC[C@H](OC)C3)nc(-c3ccccc3)n2)CC1 [Example 59, 4-[(S)-2-{[6-((S)-3-Methoxy-pyrrolidin-1-yl)-2-phenyl-pyrimidine-4-carbonyl]-amino}-3-(4-phosphono-phenyl)-propionyl]-piperazine-1-carboxylic acid ethyl ester]
6 |  | 3.5 nM | CCCCOC(=O)N1CCN(C(=O)[C@H](CP(=O)(OCOC(=O)OC)OCOC(=O)OC)NC(=O)c2cc(N3CC[C@H](OC)C3)nc(-c3ccccc3)n2)CC1 [Example 93, 4-((R)-3-[Bis-(methoxycarbonyloxy-methoxy)-phosphoryl]-2-{[6-((S)-3-methoxy-pyrrolidin-1-yl)-2-phenyl-pyrimidine-4-carbonyl]-amino}-propionyl)-piperazine-1-carboxylic acid butyl ester]
7 |  | 34 nM | CCCCOC(=O)N1CCN(C(=O)[C@H](CP(=O)(OCOC(=O)OC(C)C)OCOC(=O)OC(C)C)NC(=O)c2cc(N3CC[C@H](OC)C3)nc(-c3ccccc3)n2)CC1 [Example 95, 4-((R)-3-[Bis-(isopropoxycarbonyloxy-methoxy)-phosphoryl]-2-{[6-((S)-3-methoxy-pyrrolidin-1-yl)-2-phenyl-pyrimidine-4-carbonyl]-amino}-propionyl)-piperazine-1-carboxylic acid butyl ester]
8 |  | 3.2 nM | CCCCOC(=O)N1CCN(C(=O)[C@H](CP(=O)(OCc2oc(=O)oc2C)OCc2oc(=O)oc2C)NC(=O)c2cc(N3CC[C@H](OC)C3)nc(-c3ccccc3)n2)CC1 [Example 101, 4-((R)-3-[Bis-(5-methyl-2-oxo-[1,3]dioxol-4-ylmethoxy)-phosphoryl]-2-{[6-((S)-3-methoxy-pyrrolidin-1-yl)-2-phenyl-pyrimidine-4-carbonyl]-amino}-propionyl)-piperazine-1-carboxylic acid butyl ester]
9 |  | 153 nM | CCCCOC(=O)N1CCN(C(=O)[C@H](CP(=O)(O[C@@H](C)C(=O)OCC)O[C@@H](C)C(=O)OCC)NC(=O)c2cc(N3CC[C@H](OC)C3)nc(-c3ccccc3)n2)CC1 [Example 107, 4-((R)-3-[Bis-((S)-1-ethoxycarbonyl-ethoxy)-phosphoryl]-2-{[6-((S)-3-methoxy-pyrrolidin-1-yl)-2-phenyl-pyrimidine-4-carbonyl]-amino}-propionyl)-piperazine-1-carboxylic acid butyl ester]
10 |  | 208 nM | CCCCOC(=O)N1CCN(C(=O)[C@H](CP2(=O)OCCCO2)NC(=O)c2cc(N3CC[C@H](OC)C3)nc(-c3ccccc3)n2)CC1 [Example 109, 4-[(R)-2-{[6-((S)-3-Methoxy-pyrrolidin-1-yl)-2-phenyl-pyrimidine-4-carbonyl]-amino}-3-(2-oxo-2λ^5-[1,3,2]dioxaphosphinan-2-yl)-propionyl]piperazine-1-carboxylic acid butyl ester]
11 |  | 36 nM | CCCC(=O)OCOP(=O)(OCOC(=O)CCC)c1ccc(C[C@H](NC(=O)c2cc(N3CC[C@H](OC)C3)nc(-c3ccccc3)n2)C(=O)N2CCN(C(=O)OCC)CC2)cc1 [Example 124, 4-((S)-3-[4-(Bis-(butyryloxy-methoxy)-phosphoryl)-phenyl]-2-{[6-((S)-3-methoxy-pyrrolidin-1-yl)-2-phenyl-pyrimidine-4-carbonyl]-amino}-propionyl)-piperazine-1-carboxylic acid ethyl ester]
12 | 21 nM |  | CCCCOC(=O)N1CCN(C(=O)[C@H](CCC(=O)O)NC(=O)c2cc(N3CC[C@H](OC)C3)nc(-c3ccccc3)n2)CC1 [reference compound]
13 | 32 nM |  | CCOC(=O)N1CCN(C(=O)[C@H](CCC(=O)O)NC(=O)c2cc(N3CC[C@H](OC)C3)nc(-c3ccccc3)n2)CC1 [reference compound]
14 | 91 nM |  | CCCCOC(=O)N1CCN(C(=O)[C@H](CC(=O)O)NC(=O)c2cc(N3CC[C@H](OC)C3)nc(-c3ccccc3)n2)CC1 [reference compound]
15 | 226 nM |  | CCOC(=O)N1CCN(C(=O)[C@H](Cc2ccc(C(=O)O)cc2)NC(=O)c2cc(N3CC[C@H](OC)C3)nc(-c3ccccc3)n2)CC1 [reference compound]
16 | 138 nM |  | CCOC(=O)N1CCN(C(=O)[C@H](CC(=O)O)NC(=O)c2cc(N3CC[C@H](OC)C3)nc(-c3ccccc3)n2)CC1 [reference compound]

Row | Structure (SMILES) | IC50 [1] | IC50 (human P2Y12 receptor)
17 | CCCCOC(=O)N1CCN(C(=O)[C@H](CP(=O)(N[C@H](C(=O)OC)c2ccccc2)N[C@H](C(=O)OC)c2ccccc2)NC(=O)c2cc(N3CC[C@H](OC)C3)nc(-c3ccccc3)n2)CC1 [Example 88, N,N′-Bis-((S)-1-methoxycarbonyl-1-phenyl-methyl)-2-{(R)-[6-((S)-3-methoxy-pyrrolidin-1-yl)-2-phenyl-pyrimidine-4-carbonyl]-amino}-3-oxo-3-(4-butoxy-carbonyl-piperazin-1-yl)-propyl-phosphonic acid diamide] |  | 22 nM
18 | CCCCOC(=O)N1CCN(C(=O)[C@H](CP(=O)(N[C@@H](C)C(=O)OC)N[C@@H](C)C(=O)OC)NC(=O)c2cc(N3CC[C@H](OC)C3)nc(-c3ccccc3)n2)CC1 [Example 89, N,N′-Bis-((S)-1-methoxycarbonyl-ethyl)-2-{(R)-[6-((S)-3-methoxy-pyrrolidin-1-yl)-2-phenyl-pyrimidine-4-carbonyl]-amino}-3-oxo-3-(4-butoxy-carbonyl-piperazin-1-yl)-propyl-phosphonic acid diamide] |  | 162 nM
19 | CCCCOC(=O)N1CCN(C(=O)[C@H](CP(=O)(NC(C)(C)C(=O)OCC)NC(C)(C)C(=O)OCC)NC(=O)c2cc(N3CC[C@H](OC)C3)nc(-c3ccccc3)n2)CC1 [Example 92, N,N′-Bis-(2-ethoxycarbonyl-prop-2-yl)-2-{(R)-[6-((S)-3-methoxy-pyrrolidin-1-yl)-2-phenyl-pyrimidine-4-carbonyl]-amino}-3-oxo-3-(4-butoxy-carbonyl-piperazin-1-yl)-propyl-phosphonic acid diamide] |  | 42 nM
20 | CCOC(=O)N1CCN(C(=O)[C@H](CP(=O)(OCOC(C)=O)OCOC(C)=O)NC(=O)c2cc(N3CC[C@H](OC)C3)nc(-c3ccccc3)n2)CC1 [Example 120, 4-((R)-3-[Bis-(acetoxy-methoxy)-phosphoryl]-2-{[6-((S)-3-methoxy-pyrrolidin-1-yl)-2-phenyl-pyrimidine-4-carbonyl]-amino}-propionyl)-piperazine-1-carboxylic acid ethyl ester] |  | 7 nM
